Reference: patent US10633635B2, “Methods for production of functional beta cells” (Janssen Biotech, Inc., priority 2016, dated 2020)
Entries after “also recorded” stand apart in the source; their conditions may differ. Counter-ions that a name gives are not always drawn.

Key:
MAFA or UCN3 = experiment: Small molecule screen at Stage 7: induction of MAFA or UCN3 expression; type: cell-based, human; details: Stage 7 at 20 mM D-glucose plus BME Vitamin supplement; 79 small molecules of Table XI
Experimental: (§1) The following example is directed to identification of small molecules that can enhance the maturation status of a pancreatic beta cell, via increasing the gene expression of mature beta cell markers including MAFA (v-maf avian musculoaponeurotic fibrosarcoma oncogene homolog A) or UCN3 (urocortin 3). […] Y-compound was added to only during the first 24 hours post-seeding.
(§2) For FIGS. 1A to 1H the cultures were differentiated using the following protocol.
In general, the embodiments herein differentiate human pluripotent cells substantially as described above in Stages 1-7. For Stage 7, various small molecules were added and their effect was evaluated by quantitative real-time PCR. […] These small molecules were evaluated and 2 μM of each was added at Stage7.
(§3) Primer details are outlined in Table III.

MAFA [1] = experiment: Small molecule screen: qRT-PCR of MAFA expression at Stage 7 in H1-hESC-derived ALI clusters; type: cell-based, human; details: 2 μM small molecule added at Stage 7; S7D7 ALI clusters; quantitative real-time PCR; FIGS. 1A-1D
Experimental: as §1, §2
(§4) In general, the embodiments herein differentiate human pluripotent cells substantially as described above in Stages 1-7. For Stage 7, various small molecules were added and their effect was evaluated by quantitative real-time PCR. These small molecules were evaluated and 2 μM of each was added at Stage7.
as §3

UCN3 = experiment: Small molecule screen: qRT-PCR of UCN3 expression at Stage 7 in H1-hESC-derived ALI clusters; type: cell-based, human; details: S7D7 ALI clusters; for expression of UCN3 as compared to S6D7, or untreated or DMSO treated cultures at Stage 7: 2 μM small molecule added at Stage 7, quantitative real-time PCR, FIGS. 1E-1H; for UCN3 up-regulation during Stage 7: Stage 7 no ALK5, low T3, ZM, H, NAC, FI, BLAR001, 5 μM AZT, 1 μM or 10 μM DEZA, FIG. 2B
Experimental: as §1, §2, §4, §3

INHBB = details: S7D7 ALI clusters; 10 μM ALK5 inhibitor II in Stage 7; FIG. 3A
Experimental: Cells of the human embryonic stem cell line H1 (“H1-hESC”) (with EZ8 media at passage 28 were seeded as single cells at 0.094×10^6 cells/cm^2 on […] ™ at a 1:30 dilution coated dishes in a media of Dulbecco's Modified Eagle's Medium Nutrient mixture F-12 (“DMEM-F12”), GlutaMAX™ in a 1:100 dilution (“1× concentration”), 0.25 mM ascorbic acid, 100 ng/ml fibroblast growth factor 2 (“FGF2”), 1 ng/ml of transforming growth factor beta (“TGFβ”), insulin-transferrin-selenium-ethanolamine (“ITS-X”) at a 1:100 dilution, 2% fatty-acid free bovine serum albumin (“FAF-BSA”), and 20 ng/ml of insulin-like growth factor-1 (“IGF-1”), supplemented with 10 μM of Rock Inhibitor Y-27632 (“Y-compound”). Forty-eight hours post-seeding, the cultures were washed in incomplete PBS (phosphate buffered saline without magnesium or calcium).
During Stages 1 through 4 of the protocol, cultures were maintained on planar adherent cultures. • a. […]

human islets = experiment: Glucose-stimulated insulin secretion (perifusion, C-PEPTIDE ELISA); type: cell-based; details: 16.7 mM D-glucose ± 100 ng/ml Exendin-4, FIG. 8D
Experimental: For quantification of glucose-dependent insulin secretion, Stage 7 ALI clusters, Aggrewell™ clusters and matured human islets were characterized by a cell perifusion system (BioRep Technologies, Miami, Fla., Catalog No. PERI4-02). Briefly, to normalize insulin secretion to a baseline, ALI/Aggrewell™ clusters or human islets were transferred into warm (37° C.) Kreb's Buffer (Table IX). Cells were loaded into perifusion chambers (BioRep Technologies, Catalog No. PERI-CHAMBER), and were continuously perfused (flow rate of 100 μl/min) with […] sequential Kreb's buffers supplemented with either: (i) 3 mM D-glucose; (ii) 16.7 mM D-glucose±100 ng/ml Exendin-4 (“Ex4”); and (iii) 25 mM KCl with 3 mM D-glucose. Specific perifusion protocols are indicated in each figure. Perfusate samples were collected every minute, and C-PEPTIDE protein levels (units in ng/ml) detected by a C-PEPTIDE ELISA (Mercodia, Uppsala, Sweden, Catalog No. 10-1136-01).

MAFA [2] = experiment: Small molecule screen: qRT-PCR of MAFA expression at Stage 7 in H1-hESC-derived ALI clusters; type: cell-based, human; details: Stage 7 no ALK5, low T3, ZM, H, NAC, FI, BLAR001; 5 μM AZT; 1 μM or 10 μM DEZA; S7D7 ALI clusters; FIG. 2A

Row | Molecule | expression of the MAFA or UCN3 (MAFA or UCN3) | expression of MAFA as compared to S6D7, or untreated or DMSO treated cultures at Stage 7 (MAFA [1]) | further results
1 | CC1=NN(c2ccc(C(=O)O)cc2)C(=O)C1=Cc1ccc(-c2cc(C)c(C)cc2[N+](=O)[O-])o1 [C646] | induced expression |  | 
2 | CC(C)N(CCCNC(=O)Nc1ccc(C(C)(C)C)cc1)C[C@H]1O[C@@H](n2cc(Br)c3c(N)ncnc32)[C@H](O)[C@@H]1O [SGC0946] | induced expression |  | 
3 | O=C(CCl)Nc1ccc(S(=O)(=O)c2ccc(NC(=O)CCl)cc2)cc1 [TC-E5003] |  | significantly upregulated | 
4 | Nc1ncn([C@@H]2O[C@H](CO)[C@@H](O)[C@H]2O)c(=O)n1 [5-Azacytidine] | induced expression |  | expression of UCN3 as compared to S6D7, or untreated or DMSO treated cultures at Stage 7 (UCN3): significantly upregulated; also recorded: increased; UCN3 up-regulation during Stage 7 (UCN3): up-regulator
5 | O=C1c2c(O)ccc(O)c2C(=O)c2c(NCCNCCO)ccc(NCCNCCO)c21 [Mitoxantrone dihydrochloride] | induced expression |  | 
6 | Cc1cc(/N=N/c2ccc(S(=O)(=O)Nc3ccccn3)cc2)c(N)cc1O [MS436] |  | significantly upregulated | 
7 | COc1cc2c(NC3CCN(C(C)C)CC3)nc(N3CCC(F)(F)CC3)nc2cc1OCCCN1CCCC1 [UNC0642] |  | significantly upregulated | 
8 | O=c1cc(N2CCNCC2)oc2c(-c3ccccc3)cccc12 [LY303511] |  | significantly upregulated | 
9 | COc1cc2c(NC3CCN(C4CCCCC4)CC3)nc(N3CCCN(C(C)C)CC3)nc2cc1OCCCN1CCCCC1 [UNC0646] |  | significantly upregulated | 
10 | COc1cc2c(cc1OCCCN1CCCC1)N=C(N)C21CCC1 [A366] |  | significantly upregulated | 
11 | CC(=O)NCC(=O)N1[C@@H]2CC[C@H]1c1ccc(Nc3ncc(C(F)(F)F)c(NC4CCC4)n3)cc12 [PF03814735] |  | significantly upregulated | 
12 | O=c1ncccn1[C@@H]1O[C@H](CO)[C@@H](O)[C@H]1O [Zebularine] | induced expression |  | 
13 | COc1ccccc1S(=O)(=O)Nc1ccc2c(c1)CN(C)C(=O)N2 [PFI1] |  | significantly upregulated | 
14 | O=C(CCCCCCC(=O)Nc1cccnc1)NO [Pyroxamide] |  |  | expression of UCN3 as compared to S6D7, or untreated or DMSO treated cultures at Stage 7 (UCN3): significantly upregulated; also recorded: increased
15 | Cn1c(/C=C/C(=O)NO)ccc1/C=C/C(=O)c1cccc(F)c1 [MC1568] |  | significantly upregulated | 
16 | Nc1nc(OCc2cc(Br)cs2)c2[nH]cnc2n1 [Lomeguatrib] | induced expression |  | 
17 | Cn1nnc2c(C(N)=O)ncn2c1=O [Temozolomide] | induced expression |  | 
18 | Cc1cccc(-c2n[nH]cc2-c2ccc3ncccc3n2)n1 [ALK5 inhibitor II, 2-(3-(6-Methylpyridin-2-yl)-1H-pyrazol-4-yl)-1,5-naphthyridine] |  |  | INHBB expression relative to human islets (INHBB): enriched above the expression seen in human islets
19 | CC(=O)Nc1ccc(C(=O)Nc2ccccc2N)cc1 [CI994] |  |  | expression of UCN3 as compared to S6D7, or untreated or DMSO treated cultures at Stage 7 (UCN3): significantly upregulated; also recorded: increased
20 | Cc1cc(Nc2ccc(NC(=O)c3ccc(Nc4ccnc5ccccc45)cc3)cc2)nc(N)n1 [SGI 1027] | induced expression |  | 
21 | Exendin-4: insulin secretagogue, 100 ng/ml in perifusion buffer (Sigma-Aldrich E7144) |  |  | amplitude of the GSIS response (human islets): did not increase the amplitude of the GSIS response
22 | COc1cc2c(NC3CCN(C(C)C)CC3)nc(C3CCCCC3)nc2cc1OCCCN1CCCC1 [UNC0638] |  | significantly upregulated | 
23 | Nc1nccc2c1ncn2[C@@H]1C=C(CO)[C@@H](O)[C@H]1O [3-Deazaneplanocin A] |  |  | UCN3 up-regulation during Stage 7 (UCN3): but not UCN3; MAFA up-regulation during Stage 7 (MAFA [2]): effective up-regulator of MAFA
24 | O=C(O[C@@H]1Cc2c(O)cc(O)cc2O[C@@H]1c1cc(O)c(O)c(O)c1)c1cc(O)c(O)c(O)c1 [EGCG] | induced expression |  | 
25 | COc1cc2c(Nc3ccc(NC(=O)c4ccccc4)cc3)ncnc2cc1OCCCN1CCOCC1 [ZM447439] |  | significantly upregulated | 
26 | CCn1c(-c2nonc2N)nc2cncc(CNC3CCNCC3)c21 [SB747651A dihydrochloride] |  | significantly upregulated | 
27 | O=c1c(O)c(-c2ccc(O)c(O)c2)oc2cc(O)ccc12 [Fisetin] | induced expression |  | 
28 | COc1ccc(S(=O)(=O)ON=C2C=C(C)C(=O)C(C)=C2)cc1 [L002] | induced expression |  | 
